Like-named read-outs stand apart in the source and are kept apart here.
How the values were obtained:
EGFR L858R/T790M/C797S = EGFR L858R/T790M/C797S (Homo sapiens, UniProt P00533, C797S/L858R/T790M); experiment: Biochemical EGFR kinase inhibition assay (Lance Ultra TR-FRET), triple mutant L858R/T790M/C797S
Outline: (§1)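 Kinase activity is measured by TR-FRET phosphopeptide detection. Compounds span 0.003 μM to 10 μM; the 1 h reaction at room temperature is quenched with EDTA, then labelled antibody (2 nM) is incubated 60 min before reading.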

EGFR wildtype (WT) = EGFR wildtype (WT) (Homo sapiens, UniProt P00533); experiment: Biochemical EGFR kinase inhibition assay (Lance Ultra TR-FRET), wildtype
Sequence of EGFR wildtype (WT) (P00533 25-1210): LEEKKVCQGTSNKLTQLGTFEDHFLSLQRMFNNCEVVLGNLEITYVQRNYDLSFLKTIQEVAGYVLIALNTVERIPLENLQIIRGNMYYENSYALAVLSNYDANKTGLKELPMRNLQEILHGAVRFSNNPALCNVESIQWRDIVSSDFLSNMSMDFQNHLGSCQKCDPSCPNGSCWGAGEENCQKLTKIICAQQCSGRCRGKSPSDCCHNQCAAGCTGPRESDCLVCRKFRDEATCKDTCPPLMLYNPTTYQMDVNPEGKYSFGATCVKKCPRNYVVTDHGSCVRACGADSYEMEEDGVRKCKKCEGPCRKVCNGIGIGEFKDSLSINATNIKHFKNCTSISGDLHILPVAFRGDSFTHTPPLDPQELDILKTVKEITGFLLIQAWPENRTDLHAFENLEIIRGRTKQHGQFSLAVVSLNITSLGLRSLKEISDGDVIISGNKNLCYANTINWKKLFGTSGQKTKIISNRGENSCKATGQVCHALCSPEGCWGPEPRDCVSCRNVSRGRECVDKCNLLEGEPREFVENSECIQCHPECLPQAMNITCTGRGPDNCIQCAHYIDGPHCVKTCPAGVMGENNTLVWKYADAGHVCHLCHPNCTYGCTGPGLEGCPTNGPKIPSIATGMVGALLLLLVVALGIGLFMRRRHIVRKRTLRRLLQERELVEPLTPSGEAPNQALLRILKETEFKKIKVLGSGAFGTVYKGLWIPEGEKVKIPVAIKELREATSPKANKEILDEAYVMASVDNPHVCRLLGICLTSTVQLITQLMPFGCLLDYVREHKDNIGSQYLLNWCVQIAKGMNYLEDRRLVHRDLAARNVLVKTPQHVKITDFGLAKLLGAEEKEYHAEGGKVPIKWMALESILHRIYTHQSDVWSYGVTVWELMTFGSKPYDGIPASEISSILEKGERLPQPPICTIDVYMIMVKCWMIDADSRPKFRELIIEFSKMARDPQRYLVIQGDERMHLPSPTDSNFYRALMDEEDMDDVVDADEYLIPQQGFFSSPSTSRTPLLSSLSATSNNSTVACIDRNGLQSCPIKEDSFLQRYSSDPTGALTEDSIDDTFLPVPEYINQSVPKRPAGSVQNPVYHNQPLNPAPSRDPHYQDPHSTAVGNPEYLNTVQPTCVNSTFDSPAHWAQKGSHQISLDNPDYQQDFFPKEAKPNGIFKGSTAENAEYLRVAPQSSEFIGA
Outline: as §1

EGFR Del19/T790M/C797S = EGFR Del19/T790M/C797S (Homo sapiens, UniProt P00533, C797S/DEL746-750/T790M); experiment: Biochemical EGFR kinase inhibition assay (Lance Ultra TR-FRET), triple mutant del19/T790M/C797S
Sequence of EGFR Del19/T790M/C797S (P00533 with tags, fused parts or gaps DEL746-750/T790M/C797S): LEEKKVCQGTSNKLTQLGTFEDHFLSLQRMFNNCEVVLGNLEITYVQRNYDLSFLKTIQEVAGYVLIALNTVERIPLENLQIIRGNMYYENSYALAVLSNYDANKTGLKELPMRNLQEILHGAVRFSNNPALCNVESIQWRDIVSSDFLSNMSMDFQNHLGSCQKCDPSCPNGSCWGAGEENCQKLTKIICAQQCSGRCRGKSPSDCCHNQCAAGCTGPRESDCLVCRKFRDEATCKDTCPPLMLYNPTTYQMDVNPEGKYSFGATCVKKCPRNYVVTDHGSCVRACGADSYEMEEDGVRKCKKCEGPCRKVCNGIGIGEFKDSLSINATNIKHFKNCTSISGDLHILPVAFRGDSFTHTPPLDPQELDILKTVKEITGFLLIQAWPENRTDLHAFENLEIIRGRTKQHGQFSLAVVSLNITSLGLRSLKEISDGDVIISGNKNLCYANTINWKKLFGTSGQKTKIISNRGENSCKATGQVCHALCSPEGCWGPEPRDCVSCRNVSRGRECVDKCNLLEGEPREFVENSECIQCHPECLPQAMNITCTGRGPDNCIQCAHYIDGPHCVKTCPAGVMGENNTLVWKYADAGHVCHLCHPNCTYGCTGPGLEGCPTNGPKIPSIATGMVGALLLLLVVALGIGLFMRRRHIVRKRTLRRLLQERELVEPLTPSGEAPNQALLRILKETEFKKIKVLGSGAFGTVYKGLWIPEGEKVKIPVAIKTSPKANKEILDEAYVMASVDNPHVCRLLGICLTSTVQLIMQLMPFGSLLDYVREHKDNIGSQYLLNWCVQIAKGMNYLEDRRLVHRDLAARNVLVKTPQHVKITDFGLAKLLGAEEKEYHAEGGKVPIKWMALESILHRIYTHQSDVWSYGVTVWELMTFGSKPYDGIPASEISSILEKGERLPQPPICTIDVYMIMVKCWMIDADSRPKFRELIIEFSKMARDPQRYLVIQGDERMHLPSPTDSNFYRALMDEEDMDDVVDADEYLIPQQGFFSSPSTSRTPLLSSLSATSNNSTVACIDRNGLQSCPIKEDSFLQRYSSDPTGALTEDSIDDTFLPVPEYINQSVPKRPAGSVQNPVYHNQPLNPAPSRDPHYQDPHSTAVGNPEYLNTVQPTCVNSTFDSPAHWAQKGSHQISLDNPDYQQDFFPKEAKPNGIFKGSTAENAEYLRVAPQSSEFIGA
Outline: as §1

EGFR L858R/C797S = EGFR L858R/C797S (Homo sapiens, UniProt P00533, C797S/L858R); experiment: Biochemical EGFR kinase inhibition assay (Lance Ultra TR-FRET), double mutant L858R/C797S
Outline: as §1

EGFR Del19/C797S = EGFR Del19/C797S (Homo sapiens, UniProt P00533, C797S/DEL746-750); experiment: Biochemical EGFR kinase inhibition assay (Lance Ultra TR-FRET), double mutant del19/C797S
Sequence of EGFR Del19/C797S (P00533 with tags, fused parts or gaps DEL746-750/C797S): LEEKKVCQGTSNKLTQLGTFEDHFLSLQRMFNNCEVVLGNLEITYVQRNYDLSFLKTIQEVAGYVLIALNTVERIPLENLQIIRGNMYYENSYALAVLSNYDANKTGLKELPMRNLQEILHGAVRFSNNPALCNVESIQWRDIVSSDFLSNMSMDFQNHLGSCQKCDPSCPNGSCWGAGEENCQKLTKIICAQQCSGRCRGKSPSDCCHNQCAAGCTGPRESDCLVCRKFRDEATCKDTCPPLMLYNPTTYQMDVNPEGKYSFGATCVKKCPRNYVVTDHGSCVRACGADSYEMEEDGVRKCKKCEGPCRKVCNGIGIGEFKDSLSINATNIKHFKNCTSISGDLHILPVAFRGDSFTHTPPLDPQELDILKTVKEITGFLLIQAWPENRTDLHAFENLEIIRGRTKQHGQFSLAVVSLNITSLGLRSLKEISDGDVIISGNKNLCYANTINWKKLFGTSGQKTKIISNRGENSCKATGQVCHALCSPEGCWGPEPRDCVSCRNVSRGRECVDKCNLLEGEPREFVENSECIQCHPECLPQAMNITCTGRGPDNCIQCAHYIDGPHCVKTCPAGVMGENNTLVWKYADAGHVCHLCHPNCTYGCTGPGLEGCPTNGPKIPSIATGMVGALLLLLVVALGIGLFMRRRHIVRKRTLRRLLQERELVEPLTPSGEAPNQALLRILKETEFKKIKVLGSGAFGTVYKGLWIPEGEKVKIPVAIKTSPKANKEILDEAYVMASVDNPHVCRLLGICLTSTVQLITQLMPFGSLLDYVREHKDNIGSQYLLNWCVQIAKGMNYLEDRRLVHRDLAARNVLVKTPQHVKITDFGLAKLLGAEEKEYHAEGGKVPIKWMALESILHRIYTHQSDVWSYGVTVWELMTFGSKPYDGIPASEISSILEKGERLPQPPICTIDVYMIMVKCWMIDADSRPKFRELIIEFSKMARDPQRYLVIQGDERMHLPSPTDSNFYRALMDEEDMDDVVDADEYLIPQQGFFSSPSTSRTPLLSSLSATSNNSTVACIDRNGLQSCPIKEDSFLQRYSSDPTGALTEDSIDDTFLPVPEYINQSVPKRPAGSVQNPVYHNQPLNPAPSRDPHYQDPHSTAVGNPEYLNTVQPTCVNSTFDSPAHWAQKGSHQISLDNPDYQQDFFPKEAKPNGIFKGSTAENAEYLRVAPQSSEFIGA
Outline: as §1

[1] = IC50 L858R/T790M/C797S (nM), 100 μM ATP
[2] = IC50 Del19/T790M/C797S (nM), 100 μM ATP
[3] = IC50 L858R/C797S (nM), 100 μM ATP
[4] = IC50 Del19/C797S (nM), 100 μM ATP
[5] = ATP at Km, read-out: IC50 L858R/T790M/C797S (nM), Km ATP
[6] = ATP at Km, read-out: IC50 WT (nM), Km ATP
[7] = ATP at Km, read-out: IC50 Del19/T790M/C797S (nM), Km ATP
[8] = ATP at Km, read-out: IC50 L858R/C797S (nM), Km ATP
[9] = ATP at Km, read-out: IC50 Del19/C797S (nM), Km ATP
[10] = Km ATP, read-out: IC50 L858R/T790M/C797S (nM), Km ATP
[11] = Km ATP, read-out: IC50 WT (nM), Km ATP
[12] = Km ATP, read-out: IC50 Del19/T790M/C797S (nM), Km ATP
[13] = Km ATP, read-out: IC50 L858R/C797S (nM), Km ATP
[14] = Km ATP, read-out: IC50 Del19/C797S (nM), Km ATP
[15] = Km ATP, read-out: IC50 L858R/T790M/C797S (nM) Km ATP
[16] = Km ATP, read-out: IC50 WT (nM) Km ATP
[17] = Km ATP, read-out: IC50 Del19/T790M/C797S (nM) Km ATP
[18] = Km ATP, read-out: IC50 L858R/C797S (nM) Km ATP
[19] = Km ATP, read-out: IC50 Del19/C797S (nM) Km ATP

Sequence of EGFR L858R/T790M/C797S (P00533 25-1210 T790M/C797S/L858R): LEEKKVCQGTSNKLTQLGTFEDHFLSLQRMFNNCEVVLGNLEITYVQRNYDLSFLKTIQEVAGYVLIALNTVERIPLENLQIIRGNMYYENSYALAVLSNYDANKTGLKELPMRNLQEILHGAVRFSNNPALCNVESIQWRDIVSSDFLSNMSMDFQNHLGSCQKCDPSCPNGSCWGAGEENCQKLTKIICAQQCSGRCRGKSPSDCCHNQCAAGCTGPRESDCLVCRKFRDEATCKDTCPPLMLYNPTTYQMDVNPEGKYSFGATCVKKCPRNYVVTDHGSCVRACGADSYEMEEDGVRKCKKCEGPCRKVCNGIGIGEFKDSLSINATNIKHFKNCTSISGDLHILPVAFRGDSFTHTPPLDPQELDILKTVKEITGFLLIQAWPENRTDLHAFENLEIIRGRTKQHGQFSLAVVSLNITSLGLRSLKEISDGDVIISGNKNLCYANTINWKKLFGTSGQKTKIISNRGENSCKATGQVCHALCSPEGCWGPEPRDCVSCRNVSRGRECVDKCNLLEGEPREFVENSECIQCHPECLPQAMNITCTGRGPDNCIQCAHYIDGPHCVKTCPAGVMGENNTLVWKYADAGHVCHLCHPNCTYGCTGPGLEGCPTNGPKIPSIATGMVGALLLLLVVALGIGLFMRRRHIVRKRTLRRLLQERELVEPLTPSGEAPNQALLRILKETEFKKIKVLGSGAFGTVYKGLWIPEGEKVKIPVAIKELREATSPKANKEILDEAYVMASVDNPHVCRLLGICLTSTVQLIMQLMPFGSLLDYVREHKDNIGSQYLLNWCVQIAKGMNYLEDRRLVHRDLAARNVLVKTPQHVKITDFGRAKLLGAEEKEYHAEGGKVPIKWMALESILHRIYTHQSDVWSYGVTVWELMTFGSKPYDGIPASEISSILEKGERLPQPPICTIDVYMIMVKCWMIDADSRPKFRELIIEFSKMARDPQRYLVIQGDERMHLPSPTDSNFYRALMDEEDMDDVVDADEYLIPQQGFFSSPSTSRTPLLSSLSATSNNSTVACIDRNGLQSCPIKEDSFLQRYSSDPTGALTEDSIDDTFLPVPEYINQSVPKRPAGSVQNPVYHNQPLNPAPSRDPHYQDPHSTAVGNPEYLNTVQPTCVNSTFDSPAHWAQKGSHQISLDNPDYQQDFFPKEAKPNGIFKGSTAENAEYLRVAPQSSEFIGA

Row | Compound | IC50 (EGFR L858R/T790M/C797S; [1]) [nM] | IC50 (EGFR wildtype (WT); IC50 WT (nM), 100 μM ATP) [nM] | IC50 (EGFR Del19/T790M/C797S; [2]) [nM] | IC50 (EGFR L858R/C797S; [3]) [nM] | IC50 (EGFR Del19/C797S; [4]) [nM] | IC50 (EGFR L858R/T790M/C797S; [5]) [nM] | IC50 (EGFR wildtype (WT); [6]) [nM] | IC50 (EGFR Del19/T790M/C797S; [7]) [nM] | IC50 (EGFR L858R/C797S; [8]) [nM] | IC50 (EGFR Del19/C797S; [9]) [nM] | IC50 (EGFR L858R/T790M/C797S; [10]) [nM] | IC50 (EGFR wildtype (WT); [11]) [nM] | IC50 (EGFR Del19/T790M/C797S; [12]) [nM] | IC50 (EGFR L858R/C797S; [13]) [nM] | IC50 (EGFR Del19/C797S; [14]) [nM] | IC50 (EGFR L858R/T790M/C797S; [15]) [nM] | IC50 (EGFR wildtype (WT); [16]) [nM] | IC50 (EGFR Del19/T790M/C797S; [17]) [nM] | IC50 (EGFR L858R/C797S; [18]) [nM] | IC50 (EGFR Del19/C797S; [19]) [nM]
1 | O=S(=O)(C1CC1)N1CCC(C#Cc2cnc(Nc3ccnc(-c4cnn(S(=O)(=O)C5CC5)c4)n3)cc2NC[C@H]2CC[C@H](CO)CC2)CC1 [Example 392, ((1r,4r)-4-(((2-((2-(1-(Cyclopropylsulfonyl)-1H-pyrazol-4-yl)pyrimidin-4-yl)amino)-5-((1-(cyclopropylsulfonyl)piperidin-4-yl)ethynyl)pyridin-4-yl)amino)methyl)cyclohexyl)methanol] | 60.1 | > 10000 | 22 | 4300 | 212 |  |  |  |  |  |  |  |  |  |  |  |  |  |  | 
2 | CC1(O)CCN(c2cc(Nc3ccnc(-c4cnn(S(=O)(=O)C5CC5)c4)n3)ncc2C#Cc2cccnc2)CC1 [Example 280, 1-(2-((2-(1-(Cyclopropylsulfonyl)-1H-pyrazol-4-yl)pyrimidin-4-yl)amino)-5-(pyridin-3-ylethynyl)pyridin-4-yl)-4-methylpiperidin-4-ol] | 0.6 | > 10000 | 0.3 | 6.3 | 0.5 | 0.4 | 3.5 | 0.5 | 0.6 | 0.3 |  |  |  |  |  |  |  |  |  | 
3 | Cn1cc(C#Cc2cnc(Nc3ccnc(-c4cnn(S(=O)(=O)C5CC5)c4)n3)cc2N[C@@H]2CCC[C@@H](O)C2)cn1 [Example 76, (1R,3R)-3-((2-((2-(1-(Cyclopropylsulfonyl)-1H-pyrazol-4-yl)pyrimidin-4-yl)amino)-5-((1-methyl-1H-pyrazol-4-yl)ethynyl)pyridin-4-yl)amino)cyclohexan-1-ol] | 8.8 | > 10000 | 4 | 2780 | 80.7 |  |  |  |  |  |  |  |  |  |  | 2.2 | 667 | 3.7 | 22.1 | 51.9
4 | O=S(=O)(C1CC1)n1cc(-c2nccc(Nc3cc(N[C@@H]4CCC[C@H](O)C4)c(C#Cc4cnn(CCF)c4)cn3)n2)cn1 [Example 46, (1S,3R)-3-((2-((2-(1-(Cyclopropylsulfonyl)-1H-pyrazol-4-yl)pyrimidin-4-yl)amino)-5-((1-(2-fluoroethyl)-1H-pyrazol-4-yl)ethynyl)pyridin-4-yl)amino)cyclohexan-1-ol] | 2.9 | > 10000 | 1.3 | 59.3 | 8.6 |  |  |  |  |  |  |  |  |  |  |  |  |  |  | 
5 | CC1(CO)CCN(c2cc(Nc3ccnc(-c4cnn(S(=O)(=O)C5CC5)c4)n3)ncc2C#CCC(F)(F)F)CC1 [Example 275, (1-(2-((2-(1-(Cyclopropylsulfonyl)-1H-pyrazol-4-yl)pyrimidin-4-yl)amino)-5-(4,4,4-trifluorobut-1-yn-1-yl)pyridin-4-yl)-4-methylpiperidin-4-yl)methanol] | 3.6 | > 10000 | 1.7 | 118 | 10.4 | 0.8 | 62.3 | 1 | 12.3 | 4.5 |  |  |  |  |  |  |  |  |  | 
6 | Cn1cc(C#Cc2cnc(Nc3ccnc(-c4cnn(S(=O)(=O)C5CC5)c4)n3)cc2N2CCC(CO)CC2)c(C(F)(F)F)n1 [Example 90, (1-(2-((2-(1-(Cyclopropylsulfonyl)-1H-pyrazol-4-yl)pyrimidin-4-yl)amino)-5-((1-methyl-3-(trifluoromethyl)-1H-pyrazol-4-yl)ethynyl)pyridin-4-yl)piperidin-4-yl)methanol] | 11.8 | > 10000 | 3.6 | 37.2 | 28.5 |  |  |  |  |  |  |  |  |  |  |  |  |  |  | 

Continued by falling IC50 (EGFR L858R/T790M/C797S; [1]), values first:

Row | IC50 (EGFR L858R/T790M/C797S; [1]) [nM] | IC50 (EGFR wildtype (WT); IC50 WT (nM), 100 μM ATP) [nM] | IC50 (EGFR Del19/T790M/C797S; [2]) [nM] | IC50 (EGFR L858R/C797S; [3]) [nM] | IC50 (EGFR Del19/C797S; [4]) [nM] | IC50 (EGFR L858R/T790M/C797S; [5]) [nM] | IC50 (EGFR wildtype (WT); [6]) [nM] | IC50 (EGFR Del19/T790M/C797S; [7]) [nM] | IC50 (EGFR L858R/C797S; [8]) [nM] | IC50 (EGFR Del19/C797S; [9]) [nM] | IC50 (EGFR L858R/T790M/C797S; [10]) [nM] | IC50 (EGFR wildtype (WT); [11]) [nM] | IC50 (EGFR Del19/T790M/C797S; [12]) [nM] | IC50 (EGFR L858R/C797S; [13]) [nM] | IC50 (EGFR Del19/C797S; [14]) [nM] | IC50 (EGFR L858R/T790M/C797S; [15]) [nM] | IC50 (EGFR wildtype (WT); [16]) [nM] | IC50 (EGFR Del19/T790M/C797S; [17]) [nM] | IC50 (EGFR L858R/C797S; [18]) [nM] | IC50 (EGFR Del19/C797S; [19]) [nM] | Compound
7 | 10.6 | > 10000 | 4.1 | 1550 | 34.6 |  |  |  |  |  | 1.2 | 132 | 3 | 52.2 | 20.3 |  |  |  |  |  | CC1(O)CCC(CNc2cc(Nc3ccnc(-c4cnn(S(=O)(=O)C5CC5)c4)n3)ncc2C#CC2CCCO2)CC1 (stereo not shown) [Example 377, (1 r,4r)-4-(((2-((2-(1-(Cyclopropylsulfonyl)-1H-pyrazol-4-yl)pyrimidin-4-yl)amino)-5-((tetrahydrofuran-2-yl)ethynyl)pyridin-4-yl)amino)methyl)-1-methylcyclohexan-1-ol]
8 | 3.6 | > 10000 | 2.1 | 30.5 | 8.8 |  |  |  |  |  |  |  |  |  |  | 1.4 | 32.3 | 2 | 4.3 | 6.7 | O=S(=O)(C1CC1)n1cc(-c2nccc(Nc3cc(N[C@H]4CC[C@@H](O)CC4)c(C#Cc4cnn(C5CCOCC5)c4)cn3)n2)cn1 [Example 94, (1s,4s)-4-((2-((2-(1-(Cyclopropylsulfonyl)-1H-pyrazol-4-yl)pyrimidin-4-yl)amino)-5-((1-(tetrahydro-2H-pyran-4-yl)-1H-pyrazol-4-yl)ethynyl)pyridin-4-yl)amino)cyclohexan-1-ol]
9 | 2.8 | > 10000 | 2.7 | 165 | 8.2 |  |  |  |  |  | 0.9 | 84.5 | 2.6 | 33.6 | 7.2 |  |  |  |  |  | O=S(=O)(C1CC1)n1cc(-c2nccc(Nc3cc(NC4CCC(CO)CC4)c(C#CC4CCOC4C(F)(F)F)cn3)n2)cn1 [Example 416, ((1s,4s)-4-((2-((2-(1-(Cyclopropylsulfonyl)-1H-pyrazol-4-yl)pyrimidin-4-yl)amino)-5-(((2R)-2-(trifluoromethyl)tetrahydrofuran-3-yl)ethynyl)pyridin-4-yl)amino)cyclohexyl)methanol]
10 | 2.1 | > 10000 | 1.1 | 89.8 | 6.9 | 0.8 | 115 | 0.9 | 16.3 | 6.2 |  |  |  |  |  |  |  |  |  |  | CC(C)(O)[C@H]1CC[C@@H](Nc2cc(Nc3ccnc(-c4cnn(S(=O)(=O)C5CC5)c4)n3)ncc2C#Cc2cnn(CC(F)F)c2)CC1 [Example 325, 2-((1s,4s)-4-((2-((2-(1-(Cyclopropylsulfonyl)-1H-pyrazol-4-yl)pyrimidin-4-yl)amino)-5-((1-(2,2-difluoroethyl)-1H-pyrazol-4-yl)ethynyl)pyridin-4-yl)amino)cyclohexyl)propan-2-ol]
11 | 0.9 | 1520 | 1 | 5.4 | 2.4 | 0.5 |  | 1.3 | 0.8 | 0.6 |  |  |  |  |  |  |  |  |  |  | CC1(CO)CCN(c2cc(Nc3ccnc(-c4cnn(S(=O)(=O)C5CC5)c4)n3)ncc2C#Cc2cnn(C(F)F)c2)CC1 [Example 305, (1-(2-((2-(1-(Cyclopropylsulfonyl)-1H-pyrazol-4-yl)pyrimidin-4-yl)amino)-5-((1-(difluoromethyl)-1H-pyrazol-4-yl)ethynyl)pyridin-4-yl)-4-methylpiperidin-4-yl)methanol]

Source: patent US11981658B2, “Substituted aminopyridine compounds as EGFR inhibitors” (YUHAN CORPORATION, priority 2021, dated 2024)
